Results on 17 compounds are retold here after ChEMBL document CHEMBL3045389, “Synthesis and insect antifeedant activity of plumbagin derivatives” (2012).

Test [1] concerns Achaea janata. In words: Antifeedant activity against prestarved healthy third-instar larval stage of Achaea janata assessed as area of leaf consumed after 6 hr by conventional no-choice leaf-disk bioassay. In kind it is functional.
Test [2] deals with Spodoptera litura. In words: Antifeedant activity against prestarved healthy third-instar larval stage of Spodoptera litura assessed as area of leaf consumed after 6 hr by conventional no-choice leaf-disk bioassay. In kind it is functional.

Turning to `CCCCCCCCCCCCNC1=C(C)C(=O)c2cccc(OC)c2C1=O`, the ED50 in test [1] is 59.62 microg/cm2; in test [2], more than 500 microg/cm2.

On to `CCCCCCCCCCCCCCCCNC1=C(C)C(=O)c2cccc(OC)c2C1=O`, for which the ED50 in test [1] was found to be 64.23 microg/cm2; in test [2], 16.77 microg/cm2.

Take `CCCCCCCC/C=C/CCCCCCCCNC1=C(C)C(=O)c2cccc(OC)c2C1=O`: the ED50 was found to be 26.49 microg/cm2 in test [1] and 180.36 microg/cm2 in test [2].

For the compound `C=CCNC1=C(C)C(=O)c2cccc(OC)c2C1=O`, the ED50 in test [1] came to 13.51 microg/cm2; in test [2], 31.22 microg/cm2.

Turning to `COc1cccc2c1C(=O)C(NCc1ccccc1)=C(C)C2=O`, the ED50 in test [1] and in test [2] was more than 500 microg/cm2 each time.

With `COc1cccc2c1C(=O)C(NCc1ccc(F)cc1)=C(C)C2=O`, the values for the ED50 in test [1] and in test [2] were 51.091 microg/cm2 and 302.32 microg/cm2, respectively.

For the compound `COc1ccc(CNC2=C(C)C(=O)c3cccc(OC)c3C2=O)cc1`, the ED50 in test [1] and in test [2] was more than 500 microg/cm2 in each case.

Turning to `COc1cccc2c1C(=O)C(NCc1ccc(C(F)(F)F)cc1)=C(C)C2=O`, the ED50 in test [1] is 21.82 microg/cm2; in test [2], more than 500 microg/cm2.

In the case of `CCNC1=C(C)C(=O)c2cccc(OC)c2C1=O`, the ED50 is reported as 24.41 microg/cm2 in test [1] and more than 500 microg/cm2 in test [2].

For the compound `CCCNC1=C(C)C(=O)c2cccc(OC)c2C1=O`, the ED50 in test [1] and in test [2] was more than 500 microg/cm2 each time.

For `CCCCNC1=C(C)C(=O)c2cccc(OC)c2C1=O`, the results for the ED50 in test [1] and in test [2] were more than 500 microg/cm2 and 64.08 microg/cm2, respectively.

On to `CCCCCCNC1=C(C)C(=O)c2cccc(OC)c2C1=O`, for which the ED50 in test [1] turned out to be 73.31 microg/cm2; in test [2] it was 278.34 microg/cm2.

Take `CCCCCCCCNC1=C(C)C(=O)c2cccc(OC)c2C1=O`: the results for the ED50 in test [1] and in test [2] were 44.76 microg/cm2 and more than 500 microg/cm2, respectively.

In the case of `CCCCCCCCCNC1=C(C)C(=O)c2cccc(OC)c2C1=O`, the results for the ED50 in test [1] and in test [2] were 24.04 microg/cm2 and 32.5 microg/cm2, respectively.

In the case of `CCCCCCCCCCNC1=C(C)C(=O)c2cccc(OC)c2C1=O`, the ED50 in test [1] turned out to be 30.25 microg/cm2; in test [2] it was 31.109 microg/cm2.

Take `C/C=C(\C)C(=O)O[C@H]1C[C@@H](OC(C)=O)[C@@]2(C(=O)OC)CO[C@H]3[C@@H](O)[C@@](C)([C@]45O[C@@]4(C)[C@@H]4C[C@H]5O[C@@H]5OC=C[C@@]54O)[C@H]4[C@]1(CO[C@]4(O)C(=O)OC)[C@@H]32` [AZADIRACHTIN A]: the ED50 in test [1] amounted to 0.72 microg/cm2; in test [2], 0.89 microg/cm2.

Turning to `CC1=CC(=O)c2c(O)cccc2C1=O` [PLUMBAGIN], the results for the ED50 in test [1] and in test [2] were 23.97 microg/cm2 and 43.71 microg/cm2, respectively.
